# Assay results: PMC9892044, “Synthesis of new diphenyl urea-clubbed imine analogs and its Implications in diabetic management through in vitro and in silico approaches” (Scientific Reports, 2023)
row,melting point [°C],Structure (SMILES)
1,218 to 220,"CCOc1cccc(/C=N/c2ccccc2NC(=O)Nc2cccc(Cl)c2)c1O [Compound 3a, (E)-1-(3-chlorophenyl)-3-(2-((3-ethoxy-2-hydroxybenzylidene)amino)phenyl) urea]"
2,217 to 219,"CCOc1cccc(/C=N/c2ccccc2NC(=O)Nc2ccc(F)cc2)c1O [Compound 3b, (E)-1-(2-((3-ethoxy-2-hydroxybenzylidene)amino)phenyl)-3-(4-fluorophenyl) urea]"
3,228 to 230,"CCOc1cccc(/C=N/c2ccccc2NC(=O)Nc2ccc3ccccc3c2)c1O [Compound 3d, (E)-1-(2-((3-ethoxy-2-hydroxybenzylidene)amino)phenyl)-3-(naphthalen-2-yl) urea]"
4,204 to 206,"CCOc1cccc(/C=N/c2ccccc2NC(=O)Nc2ccc(OC)cc2)c1O [Compound 3e, (E)-1-(2-((3-ethoxy-2-hydroxybenzylidene)amino)phenyl)-3-(4-methoxyphenyl) urea]"
5,218 to 220,"CCOc1cccc(/C=N/c2ccccc2NC(=O)Nc2ccc(Cl)cc2)c1O [Compound 3f, (E)-1-(4-chlorophenyl)-3-(2-((3-ethoxy-2-hydroxybenzylidene)amino)phenyl) urea]"
6,216 to 218,"CCOc1cccc(/C=N/c2ccccc2NC(=O)Nc2ccccc2C)c1O [Compound 3g, (E)-1-(2-((3-ethoxy-2-hydroxybenzylidene)amino)phenyl)-3-(o-tolyl) urea]"
7,203 to 205,"CCOc1cccc(/C=N/c2ccccc2NC(=O)Nc2cccc(C)c2)c1O [Compound 3h, (E)-1-(2-((3-ethoxy-2-hydroxybenzylidene)amino)phenyl)-3-(m-tolyl) urea]"
8,210 to 212,"CCOc1cccc(/C=N/c2ccccc2NC(=O)Nc2ccc(C)cc2)c1O [Compound 3i, (E)-1-(2-((3-ethoxy-2-hydroxybenzylidene)amino)phenyl)-3-(p-tolyl)urea]"
9,208 to 210,"COc1cccc(/C=N/c2ccccc2NC(=O)Nc2cccc(Cl)c2)c1O [Compound 3l, (E)-1-(3-chlorophenyl)-3-(2-((2-hydroxy-3-methoxybenzylidene)amino)phenyl) urea]"
10,200 to 201,"COc1cccc(/C=N/c2ccccc2NC(=O)Nc2cccc(F)c2)c1O [Compound 3n, (E)-1-(3-fluorophenyl)-3-(2-((2-hydroxy-3-methoxybenzylidene)amino)phenyl) urea]"
11,214 to 216,"COc1cccc(/C=N/c2ccccc2NC(=O)Nc2ccc3ccccc3c2)c1O [Compound 3o, (E)-1-(2-((2-hydroxy-3-methoxybenzylidene)amino)phenyl)-3-(naphthalen-2-yl) urea]"
12,218 to 220,"COc1cccc(/C=N/c2ccccc2NC(=O)Nc2ccc(Cl)cc2)c1O [Compound 3q, (E)-1-(4-chlorophenyl)-3-(2-((2-hydroxy-3-methoxybenzylidene)amino)phenyl) urea]"
13,201 to 203,"COc1cccc(/C=N/c2ccccc2NC(=O)Nc2cccc(C)c2)c1O [Compound 3s, (E)-1-(2-((2-hydroxy-3-methoxybenzylidene)amino)phenyl)-3-(m-tolyl) urea]"
14,188 to 190,"COc1cccc(/C=N/c2ccccc2NC(=O)Nc2ccccc2)c1O [Compound 3u, (E)-1-(2-((2-hydroxy-3-methoxybenzylidene)amino)phenyl)-3-phenylurea]"
15,200 to 212,"COc1cccc(/C=N/c2ccccc2NC(=O)Nc2ccc(C(C)=O)cc2)c1O [Compound 3v, (E)-1-(4-acetylphenyl)-3-(2-((2-hydroxy-3-methoxybenzylidene)amino)phenyl) urea]"
16,219 to 221,"COc1cc(/C=N/c2ccccc2NC(=O)Nc2ccc(Cl)cc2)ccc1O [Compound 3w, (E)-1-(4-chlorophenyl)-3-(2-((4-hydroxy-3-methoxybenzylidene)amino)phenyl) urea]"
17,200 to 202,"COc1cc(/C=N/c2ccccc2NC(=O)Nc2ccccc2C)ccc1O [Compound 3x, (E)-1-(2-((4-hydroxy-3-methoxybenzylidene)amino)phenyl)-3-(o-tolyl) urea]"
